Test results as given in ChEMBL document CHEMBL1157451, “Effect of some P-glycoprotein modulators on Rhodamine-123 absorption in guinea-pig ileum” (Bioorg Med Chem Lett, 2008).
pEC50: −log10 of the molar value.

Assay: Inhibition of P-glycoprotein-mediated rhodamine 123 absorption in guinea-pig ileum
Type: tissue-based
Conditions: Cavia porcellus

Row | pEC50 | Compound
1 | 4.83 | COc1cccc(CCc2ccccc2OCc2ccccn2)c1
2 | 4.40 | CC/C(=C(\c1ccccc1)c1ccc(OCCN(C)C)cc1)c1ccccc1 [TAMOXIFEN]
